Data as given in patent US10793543B2, “Selective C-KIT kinase inhibitor” (PRECEDO PHARMACEUTICALS CO., LTD, priority 2016, dated 2020).

What was measured:
[1] = system: Tel-cKit/V654A-BaF3 cells (KIT V654A); assay: Cell proliferation, CCK-8, Tel-cKit/V654A-BaF3; format: cell-based; conditions: Mus musculus, 72 hours
Source text: (§1) In addition, in the present example, further uses: mouse P210/BaF3 (stably expressing P210 Bcr-Abl mutant gene), mouse Tel-ABL-BaF3 (stably expressing wild-type ABL kinase), mouse Tel-cKit-BaF3 (stably expressing C-KITwild-type kinase), mouse Tel-cKit/V559D-BaF3 (stably expressing C-KIT V559D mutant kinase), mouse Tel-cKit/V559D/V654A-BaF3 (stably expressing C-KIT V559D/V654A mutant kinase), mouse Tel-cKit/N822K-BaF3 (stably expressing C-KIT N822K mutant kinase), mouse Tel-cKit/V654A-BaF3 (stably expressing C-KIT V654A mutant kinase), mouse Tel-cKit/L567P-BaF3 (stably expressing C-KIT L567P mutant kinase), mouse Tel-cKit/T670I-BaF3 (stably expressing C-KIT T670I mutant kinase), mouse Tel-PDGFRα-BaF3 (stably expressing PDGFRα kinase), mouse Tel-PDGFRβ-BaF3 (stably expressing PDGFRβ kinase), mouse Tel-VEGFR2-BaF3 (stably expressing VEGFR2 kinase), mouse Tel-RET-BaF3 (stably expressing RET kinase). The above cell lines were all constructed by our laboratory according to the following method: the kinase region sequences of human P210 Bcr-Abl, ABL, C-KIT, C-KIT V559D, C-KIT V559D/V654A, C-KIT N822K, C-KIT V654A, C-KIT L567P, C-KIT T670I, PDGFRα, PDGFRβ, VEGFR2, RET were amplified respectively by PCR, inserted respectively into MSCV-Puro vectors harboring N-terminal TEL fragment and/or NPM fragment and/or TPR fragment (Clontech), then the vectors were stably transfected into mouse BaF3 cells by retrovirus methods and growth factor IL-3 was removed, eventually obtaining cell lines that are transferred protein (P210 Bcr-Abl, ABL, C-KIT, C-KIT V559D, C-KIT V559D/V654A, C-KIT N822K, C-KIT V654A, C-KIT L567P, C-KIT T670I, PDGFRα, PDGFRβ, VEGFR2, RET)-dependent.
(§2) The cells were incubated for 72 hours, and then the number of viable cells was quantified with a microplate reader by using CCK-8 Cell Viability Assay Kit (purchased from Bestbio Company, Shanghai, China) (CCK-8 can be reduced by dehydrogenase in living cells to a highly water-soluble yellow formazan product, and the amount of formazan produced is proportional to the number of living cells).

[2] = system: Tel-cKit/T670I-BaF3 cells (KIT T670I); assay: Cell proliferation, CCK-8, Tel-cKit/T670I-BaF3; format: cell-based; conditions: Mus musculus, 72 hours
Source text: as §1, §2

[3] = system: phosphorylation of C-KIT and pathway proteins in GIST-882 cells; assay: Effects on cell signaling pathways (phosphorylation), GIST-882; format: cell-based, human; conditions: GIST-882, 0.1 μM, 2 hours
[4] = system: cells expressing wild-type C-KIT kinase; assay: Cell proliferation, C-KIT cells; format: cell-based; conditions: cells expressing wild-type C-KIT kinase, summary of Table 2
Source text: In the present example, the following cells were used: chronic myelogenous leukemia cells K562 (expressing P210 Bcr-Abl mutant gene), human megakaryocytic leukemia cells MEG-01 (expressing P210 Bcr-Abl mutant gene), human peripheral blood basophilic leukemia cells Ku812 (expressing Bcr-Abl mutant gene) (all above cells purchased from ATCC, USA), human gastrointestinal stromal tumor cell lines GIST-T1 cells (expressing wild-type C-KIT gene) (purchased from Cosmo Bio Co., Ltd., Japan), human gastrointestinal stromal tumor cell lines GIST-882 cells (expressing wild-type C-KIT gene) (presented by the Professor Gray Lab, Dana-Farber Cancer Institute, Harvard University, USA), mouse pro-B cells BaF3 (purchased from ATCC, USA).
as §1, §2

[5] = system: gastrointestinal stromal tumor cell lines GIST-T1; assay: Mouse tumor model of GIST-T1 cells; format: in vivo; conditions: for tumor inhibition rate: Day 28 after administration
Procedure: (§3) 1. 4-6 week-old Bal b/c female mice were purchased from Shanghai SLAC Experimental Animal Co., Ltd., and were raised in a SPF-level laboratory. Drinking water and padding were both subjected to aseptic processing via high-pressure disinfection, and all operations of the mice were conducted under aseptic conditions;
(§4) 2. About 5×10^6 gastrointestinal stromal tumor cell lines GIST-T1 or GIST-882 (purchased from ATCC) were respectively injected subcutaneously at left side back of all mice at Day 0;
(§5) 5. Mice were sacrificed on Day 36 (for GIST-882 mouse model) or Day 43 (GIST-T1 mouse model) and subcutaneous tumors were taken out and weighed for comparison;
(§6) 6. Tumor tissue specimens were prepared into protein lysate samples for further usage;
(§7) 7. Growth trend of subcutaneous tumors from Day 16 to Day 43 was derived, and tumor volume was calculated as length×width×width/2 mm^3.

[6] = system: Tel-cKit/L576P-BaF3 cells (KIT L576P); assay: Cell proliferation, CCK-8, Tel-cKit/L576P-BaF3; format: cell-based; conditions: Mus musculus, 72 hours
Source text: as §1, §2

[7] = system: Tel-RET-BaF3 cells (RET WT); assay: Cell proliferation, CCK-8, Tel-RET-BaF3; format: cell-based; conditions: Mus musculus, 72 hours
Source text: as §1, §2

[8] = system: Tel-cKit/N822K-BaF3 cells (KIT N822K); assay: Cell proliferation, CCK-8, Tel-cKit/N822K-BaF3; format: cell-based; conditions: Mus musculus, 72 hours
Source text: as §1, §2

[9] = system: gastrointestinal stromal tumor cell lines GIST-882; assay: Mouse tumor model of GIST-882 cells; format: in vivo; conditions: GIST-882 model; for tumor inhibition rate: Day 21 after administration
Procedure: as §3, §4, §5, §6, §7

Cc1ccc(NC(=O)c2cccc(C(F)(F)F)c2)cc1OC1CCN(C(=O)c2ccncc2)CC1 [Compound 4]
GI50 [1]: 1030 nM
GI50 [2]: 5310 nM
phosphorylation of C-KIT oncogenic protein [3]: significantly inhibiting
phosphorylation of proteins such as Stat5, AKT, ErK, S6K, S6, PDGFRα [3]: significant inhibitory effects
GI50 [4]: < 500 nM
inhibitory effect on mouse tumors ([5]; 25 mg/kg oral daily, Day 4 after administration): certain inhibitory effect
tumor inhibition rate ([5]; 50 mg/kg oral daily): 65.3%
tumor inhibition rate ([5]; 100 mg/kg oral daily): 73.8%
effect on body weight of mice ([5]; oral daily dosing): no effect on the body weight of mice
GI50 [6]: 148 nM
GI50 [7]: 590 nM
GI50 [8]: 940 nM
tumor inhibition rate ([9]; 50 mg/kg oral daily): 44%
tumor inhibition rate ([9]; 100 mg/kg oral daily): 58%
effect on body weight of mice ([9]; oral daily dosing): no effect on the body weight of mice
